According to PMC12040169 (PLOS Biology, 2025):

assay: in vitro; settings: human, hela cells, % viability

Row | SMILES | viability at 28.5 h, 10 µM [%]
1 | Cn1ncc2c1CCCN(C(=O)Cc1ccc(Cl)cc1)C2 [CBK285231] | 106
2 | CC1CCc2noc(C3CCN(C(=O)c4ccnn4C)CC3)c2C1 (stereo not shown) [CBK285232] | 105
3 | Cc1nc(C2CCCN(C(=O)c3cccnc3)C2)c2sccn12 (stereo not shown) [CBK285233] | 93
4 | Cc1nc(C2CCCN(C(=O)c3ccnn3C)C2)c2sccn12 (stereo not shown) [CBK285235] | 87.2
5 | Cc1csc2c(C3CCCN(C(=O)c4cc[nH]n4)C3)nc(C)n12 (stereo not shown) [CBK285238] | 88.1
6 | Cc1nc(C2CCN(C(=O)c3cscn3)CC2)c2sccn12 [CBK285240] | 107
7 | Cc1csc2c(C3CCN(C(=O)c4cccnc4)CC3)nc(C)n12 [CBK285242] | 85.1
8 | Cc1csc2c(C3CCN(C(=O)c4ccncc4)CC3)nc(C)n12 [CBK285243] | 84.4
9 | Cc1cc(C(=O)N2CCC(c3nc(C)n4c(C)csc34)CC2)on1 [CBK285247] | 99.3
10 | Cc1csc2c(C3CCN(C(=O)c4ccnn4C)CC3)nc(C)n12 [CBK285249] | 94.3
11 | Cc1ccn2cc(-c3ccc4c(c3)CC(C)N4S(C)(=O)=O)cc2c1 (stereo not shown) [CBK285253] | 89
12 | Cn1ncc2c1CCCN(C(=O)CCc1ccccc1F)C2 [CBK285255] | 96.8
13 | CS(=O)(=O)N1CCc2cc(-c3cc4ccccn4c3)ccc21 [CBK285256] | 107
14 | CCCC(=O)N1CCC(c2nc3ccccc3cc2NC(C)=O)CC1 [CBK285258] | 78.4
15 | COc1ccc(-c2cc(C3CCN(C(=O)C4CC4)C3)[nH]n2)cc1 (stereo not shown) [CBK285263] | 91.5
16 | CCNC(=O)[C@H]1CN(Cc2ccccc2)C[C@@H]1C(=O)c1ccccc1 [CBK285265] | 88.1
17 | Cc1ccc(C(=O)N2C[C@H]3CC[C@](O)(c4ccc(F)cc4)[C@H]3C2)o1 [CBK285267] | 95
18 | Cn1ccc(C(=O)NC(Cc2ccsc2)c2ccccn2)cc1=O (stereo not shown) [CBK285273] | 97.5
19 | COCC(=O)N1CCc2cc(-c3cn4ccccc4n3)ccc21 [CBK285274] | 81.9
20 | CC(=O)N1C[C@H]2CCCN(S(=O)(=O)c3cccs3)[C@H]2C1 [CBK285275] | 84.3
21 | Cc1cc(OCC(=O)N2CCCc3c(cnn3C)C2)ccc1Cl [CBK285277] | 93.3
22 | Cn1ncc2c1CCCN(C(=O)CCCOc1ccccc1F)C2 [CBK285278] | 85
23 | CS(=O)(=O)N1C2CCC(C2)[C@H]1COc1ccc(F)cc1 (stereo partly shown) [CBK285279] | 108

Row | SMILES | viability at 28.5 h, 10 µM [%]
24 | CCS(=O)(=O)N1C2CCC(C2)[C@H]1COc1ccc(F)cc1 (stereo partly shown) [CBK285280] | 109
25 | COc1ccc(-c2cc(C3CCN(C4CCSCC4)C3)[nH]n2)cc1 (stereo not shown) [CBK285282] | 99.3
26 | COc1ccc(CC(=O)N2CCCc3c(cnn3C)C2)cc1F [CBK285285] | 87.9
27 | Cn1ncc2c1CCCN(C(=O)COc1ccc(C(C)(C)C)cc1)C2 [CBK285286] | 115
28 | Cc1ccc(OCCCC(=O)N2CCCc3c(cnn3C)C2)c(C)c1 [CBK285288] | 96.9
29 | Cc1cnccc1CN1CCC[C@@H]2CN(C(=O)CC(C)C)C[C@@H]21 [CBK285289] | 104
30 | Cc1cccc(CN2CCC[C@@H]3CN(C(=O)CC(C)C)C[C@@H]32)n1 [CBK285291] | 108
31 | CC(C)S(=O)(=O)N1C2CCC(C2)[C@@H]1COc1ccc(F)cc1 (stereo partly shown) [CBK285292] | 101
32 | CC(=O)N1C[C@H]2CCCN(S(=O)(=O)c3ccc(Cl)s3)[C@H]2C1 [CBK285293] | 105
33 | CC(C)N1C[C@@H](C(=O)NC(C)(C)C)[C@@]2(Cc3ccccc3C(=O)N2)C1 [CBK285295] | 101
34 | CCS(=O)(=O)N1C[C@H]2CC[C@](O)(c3ccc(C)cc3)[C@H]2C1 [CBK285296] | 107
35 | Cc1sc2c(C3CCN(C(=O)C4CC4)CC3)nc(C)n2c1C [CBK285298] | 101
36 | Cc1sc2c(C3CCN(C(=O)C4CC4C)CC3)nc(C)n2c1C (stereo not shown) [CBK285299] | 66.4
37 | O=c1c2cc(F)ccc2nc2n1CCN(Cc1ccccc1)CC2 [CBK285300] | 94.5
38 | Cc1ccc2c(c1)c(=O)cc(C(F)(F)F)n2C[C@H]1CCCN1 [CBK285303] | 36.2
39 | CCCC(=O)N1CCC(c2cc(C(F)F)c3c(C)noc3n2)CC1 [CBK285304] | 102
40 | Cc1noc2nc(C3CCN(C(=O)C(C)C)CC3)cc(C(F)F)c12 [CBK285305] | 79.9
41 | Fc1ccc(-c2[nH]c3ncccc3c2CN2CCOCC2)cc1 [CBK285310] | 111
42 | CC(C)c1[nH]c2ncccc2c1CN1CCSCC1 [CBK285312] | 94
43 | c1cnc2[nH]c(C3CC3)c(CN3CCN4CCCCC4C3)c2c1 (stereo not shown) [CBK285313] | 81.5
44 | Cc1cc2c(cc1C)OC1(C=C2)CCN(C(=O)N2CCOCC2)CC1 [CBK285314] | 94.4
45 | Cc1ccc(S(=O)(=O)N2C[C@H]3C[C@H](NC(=O)C(C)C)[C@H]3C2)cc1 [CBK285317] | 107
46 | Cc1ccc(S(=O)(=O)N2C[C@H]3C[C@H](NC(=O)C4CC4C)[C@H]3C2)cc1 (stereo partly shown) [CBK285318] | 108

Row | SMILES | viability at 28.5 h, 10 µM [%]
47 | O=C1NCC2(CCN(Cc3ccccc3)CC2)Oc2ccccc21 [CBK285323] | 91.8
48 | Cn1ncc2c1CCCN(C(=O)COc1ccccc1F)C2 [CBK285324] | 101
49 | CCOc1ccc(CC(=O)N2CCCc3c(cnn3C)C2)cc1 [CBK285325] | 101
50 | Cc1ccc(C(=O)N2CCC3(CC2)CNC(=O)c2ccccc2O3)o1 [CBK285328] | 88.3
51 | COC(=O)C1(Cc2cc(-c3ccc(F)cc3)no2)CCOCC1 [CBK285329] | 79.3
52 | COC(=O)C1(Cc2cc(-c3cccc(F)c3)no2)CCOCC1 [CBK285330] | 95.8
53 | COc1ccc(-c2[nH]c3ncccc3c2CN2CCCC2)cc1 [CBK285331] | 69.4
54 | CN1CCN(Cc2c(C3CCCC3)[nH]c3ncccc23)CC1 [CBK285336] | 88.6
55 | COc1ccc(-c2[nH]c3ncccc3c2CN2CCSCC2)cc1 [CBK285338] | 91.9
56 | CCN1CCN(Cc2c(C(C)C)[nH]c3ncccc23)CC1 [CBK285343] | 83.6
57 | CC1CN(Cc2c(C(F)(F)F)[nH]c3ncccc23)CC(C)O1 (stereo not shown) [CBK285344] | 88.5
58 | O=C1NCCCC12CCN(Cc1ccc(F)cc1)CC2 [CBK285345] | 83.1
59 | O=C(NCc1ccccn1)c1ccc(-n2ccnc2)c(-n2cccc2)c1 [CBK285347] | 80.8
60 | COCC(=O)NC1CCN(CC2(c3ccc(C)cc3)CC2)CC1 [CBK285350] | 104
61 | O=C(NC1CCN(CC2(c3ccccc3)CC2)CC1)c1cc[nH]n1 [CBK285351] | 88.4
62 | O=C(NC1CCN(CC2(c3ccccc3)CC2)CC1)C1CCOCC1 [CBK285352] | 94.4
63 | CC1CC1C(=O)NC1CCN(CC2(c3ccccc3)CC2)CC1 (stereo not shown) [CBK285353] | 83.2
64 | CC(C)N1CCN(Cc2c(C(F)(F)F)[nH]c3ncccc23)CC1 [CBK285354] | 88.3
65 | COc1ccc(C2(CN3CCC(NC(C)=O)CC3)CC2)cc1 [CBK285357] | 101
66 | COc1ccc(C2(CN3CCC(NC(=O)C4CC4)CC3)CC2)cc1 [CBK285358] | 101
67 | Cc1ccc(C2(CN3CCC(NC(=O)C4CC4)CC3)CC2)cc1 [CBK285359] | 83.9
68 | CCN1CCN(Cc2c(C(F)(F)F)[nH]c3ncccc23)CC1 [CBK285362] | 95.2
69 | O=C(c1ccc(-n2ccnc2)c(-n2cccc2)c1)N1CCSCC1 [CBK285364] | 97.4

Row | SMILES | viability at 28.5 h, 10 µM [%]
70 | O=C(NC1CCCCC1)c1ccc(-n2ccnc2)c(-n2cccc2)c1 [CBK285365] | 107
71 | O=C(NCc1cccs1)c1ccc(-n2ccnc2)c(-n2cccc2)c1 [CBK285366] | 102
72 | COCCNC(=O)c1ccc(-n2ccnc2)c(-n2cccc2)c1 [CBK285369] | 85.5
73 | CC1CCCN(C(=O)c2ccc(-n3ccnc3)c(-n3cccc3)c2)C1 (stereo not shown) [CBK285370] | 95.1
74 | COc1ccc(-c2cc3cccnc3n2CC(=O)N2CCCC2)cc1 [CBK285379] | 84.3
75 | COc1ccc(-c2cc3cccnc3n2CC(=O)NC(C)C)cc1 [CBK285380] | 100
76 | COc1ccc(-c2cc3cccnc3n2CC(=O)NC(C)(C)C)cc1 [CBK285381] | 115
77 | COCCCNC(=O)Cn1c(-c2ccc(F)cc2)cc2cccnc21 [CBK285385] | 88.5
78 | Cc1nccn1CC1(O)CCN(C(=O)C(C)c2ccccc2)CC1 (stereo not shown) [CBK285388] | 104
79 | Cc1nc(CC(=O)NC(Cc2ccsc2)c2cccnc2)cs1 (stereo not shown) [CBK285389] | 110
80 | Cc1csc(C(Cc2ccsc2)NC(=O)CCn2ccnc2)n1 (stereo not shown) [CBK285391] | 91.2
81 | Cc1nn(C)cc1C(=O)NC(Cc1ccsc1)c1cccnc1 (stereo not shown) [CBK285392] | 109
82 | O=C(CCn1cccn1)NC(Cc1ccsc1)c1cccnc1 (stereo not shown) [CBK285393] | 101
83 | COc1ccc(-c2cc(C3CCCCCN3)no2)cc1 (stereo not shown) [CBK285399] | 96.5
84 | Cc1cc(C[C@@H]2COC[C@H]2NCc2ccc(Cl)c(Cl)c2)on1 [CBK285400] | 88
85 | CC(=O)Nc1ccc(CN2CCCCCC2c2cc(C)no2)cc1 (stereo not shown) [CBK285415] | 101
86 | COc1cccc(C(=O)N2CCCC(c3cc4cnccc4[nH]3)C2)c1 (stereo not shown) [CBK285417] | 104
87 | Cc1cc(CN2CC3CCCN3C[C@@H]2C)c(C)n1CC1CCCO1 (stereo partly shown) [CBK285419] | 82
88 | CSCC[C@@H]1CN2CCC[C@H]2CN1Cc1cnc(C)n1C [CBK285423] | 109
89 | C[C@@H]1CN2CCCC2CN1CCc1ccccc1 (stereo partly shown) [CBK285424] | 85.4
90 | C[C@H]1CN2C[C@H](O)CC2CN1Cc1cn(C)c2ccc(F)cc12 (stereo partly shown) [CBK285428] | 97.6
91 | OCC[C@H]1CN2CCCC2CN1Cc1cccc(Cl)c1Cl (stereo partly shown) [CBK285429] | 86.6
